Test results as given in US10214519B2, “Phosphatidylinositol 3-kinase inhibitors” (Gilead Sciences, Inc., priority 2016, dated 2019).

target: PI3Kβ (Homo sapiens (Human), UniProt P42338); assay: PI3K isoform TR-FRET enzymatic assay (PI3Kβ); type: biochemical; details: 2× Km ATP, 30 minutes at 25° C.
Procedure, shortened: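 IC50 came from four-parameter dose-response fits, normalized between DMSO and 1 μM wortmannin controls. The read-out was TR-FRET (615/665 nm) of PIP3 displacing fluorescent PIP3 from Europium GRP-1 after 10 mM EDTA termination. Compounds were incubated with purified heterodimeric PI3Kβ for 30 min at 25° C.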

PI3Kβ, sequence (P42338 whole entry, canonical isoform): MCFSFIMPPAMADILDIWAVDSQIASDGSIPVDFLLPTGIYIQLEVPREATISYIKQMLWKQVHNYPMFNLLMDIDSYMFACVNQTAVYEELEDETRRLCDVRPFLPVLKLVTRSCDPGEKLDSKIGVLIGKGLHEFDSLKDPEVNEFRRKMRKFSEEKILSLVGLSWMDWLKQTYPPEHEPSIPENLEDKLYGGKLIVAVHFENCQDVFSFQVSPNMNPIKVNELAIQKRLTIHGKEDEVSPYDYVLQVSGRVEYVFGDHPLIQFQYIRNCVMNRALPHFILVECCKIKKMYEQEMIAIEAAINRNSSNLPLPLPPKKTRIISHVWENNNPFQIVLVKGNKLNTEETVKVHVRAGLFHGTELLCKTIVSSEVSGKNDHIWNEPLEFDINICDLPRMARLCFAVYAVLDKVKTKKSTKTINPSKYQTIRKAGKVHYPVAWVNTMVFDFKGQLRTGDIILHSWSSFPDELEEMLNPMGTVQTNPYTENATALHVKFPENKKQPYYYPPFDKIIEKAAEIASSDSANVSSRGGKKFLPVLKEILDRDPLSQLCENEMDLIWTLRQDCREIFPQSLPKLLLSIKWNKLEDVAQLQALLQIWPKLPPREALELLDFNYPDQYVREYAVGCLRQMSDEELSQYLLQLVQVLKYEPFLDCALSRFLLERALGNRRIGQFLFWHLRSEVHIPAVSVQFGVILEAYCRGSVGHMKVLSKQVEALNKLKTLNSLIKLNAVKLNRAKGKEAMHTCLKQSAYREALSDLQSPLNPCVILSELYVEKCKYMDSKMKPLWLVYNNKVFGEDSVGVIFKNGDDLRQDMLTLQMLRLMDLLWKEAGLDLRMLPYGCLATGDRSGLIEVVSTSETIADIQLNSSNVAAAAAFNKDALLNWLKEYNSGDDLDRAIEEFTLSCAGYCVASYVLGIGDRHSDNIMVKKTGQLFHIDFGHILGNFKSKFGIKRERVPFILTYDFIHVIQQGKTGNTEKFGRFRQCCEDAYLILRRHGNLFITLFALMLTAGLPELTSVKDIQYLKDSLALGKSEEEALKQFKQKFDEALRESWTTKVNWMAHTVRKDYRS
PI3Kβ, sequence (P27986 whole entry partner, canonical isoform): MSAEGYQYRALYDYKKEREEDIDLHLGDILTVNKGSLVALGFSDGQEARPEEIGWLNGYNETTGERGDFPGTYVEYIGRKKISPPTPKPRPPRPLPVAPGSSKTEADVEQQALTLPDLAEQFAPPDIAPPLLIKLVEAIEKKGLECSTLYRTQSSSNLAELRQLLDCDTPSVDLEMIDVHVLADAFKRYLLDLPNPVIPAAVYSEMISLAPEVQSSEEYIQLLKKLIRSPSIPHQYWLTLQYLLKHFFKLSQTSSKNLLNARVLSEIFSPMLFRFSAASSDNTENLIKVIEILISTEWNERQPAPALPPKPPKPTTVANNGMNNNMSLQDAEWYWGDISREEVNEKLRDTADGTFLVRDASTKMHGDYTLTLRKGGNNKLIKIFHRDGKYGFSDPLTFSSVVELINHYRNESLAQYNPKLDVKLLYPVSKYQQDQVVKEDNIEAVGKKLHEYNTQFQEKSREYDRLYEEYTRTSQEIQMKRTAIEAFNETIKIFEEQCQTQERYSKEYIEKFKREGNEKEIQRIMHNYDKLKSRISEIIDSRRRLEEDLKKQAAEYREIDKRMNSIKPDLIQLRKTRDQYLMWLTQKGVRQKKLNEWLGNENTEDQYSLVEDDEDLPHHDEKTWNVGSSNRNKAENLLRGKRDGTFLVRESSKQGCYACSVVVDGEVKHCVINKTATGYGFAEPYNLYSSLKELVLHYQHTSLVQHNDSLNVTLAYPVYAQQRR

Question: Cc1nc2c(-c3cnccn3)cc(N3CCOCC3)cc2n1-c1ccnc2c(Cl)cccc12 [Example 246, 4-[3-(8-chloroquinolin-4-yl)-2-methyl-7-pyrazin-2-ylbenzimidazol-5-yl]morpholine] was tested. Which IC50 did it give?
Answer: 1100 nM

Question: How did the IC50 turn out when Fc1ccc(Cl)c2nccc(-n3c(C4CC4)nc4c(-c5nccs5)cc(N5CCOCC5)cc43)c12 [Example 247, 4-(1-(8-chloro-5-fluoroquinolin-4-yl)-2-cyclopropyl-4-(thiazol-2-yl)-1H-benzo[d]imidazol-6-yl)morpholine] was run?
Answer: 12 nM

Question: How did the IC50 turn out when Cc1nc2c(-c3cnc(Cl)[nH]3)cc(N3CCOCC3)cc2n1-c1ccnc2c(F)cccc12 [Example 260, 4-(4-(2-chloro-1H-imidazol-5-yl)-1-(8-fluoroquinolin-4-yl)-2-methyl-1H-benzo[d]imidazol-6-yl)morpholine] was run?
Answer: 22 nM

Question: Cc1nc2c(-c3ccc[nH]3)cc(N3CCOCC3)cc2n1-c1ccnc2c(Cl)cccc12 [Example 261, 4-[3-(8-chloroquinolin-4-yl)-2-methyl-7-(1H-pyrrol-2-yl)benzimidazol-5-yl]morpholine] was tested. Which IC50 did it give?
Answer: 24 nM

Question: How did the IC50 turn out when Cc1nc2c(-c3cc[nH]n3)cc(N3CCOCC3)cc2n1-c1ccnc2c(Cl)cccc12 [Example 262, 4-[3-(8-chloroquinolin-4-yl)-2-methyl-7-(1H-pyrazol-3-yl)benzimidazol-5-yl]morpholine] was run?
Answer: 27 nM

Question: For Cc1nc2c(-c3cc[nH]c3)cc(N3CCOCC3)cc2n1-c1ccnc2c(Cl)cccc12 [Example 263, 4-[3-(8-chloroquinolin-4-yl)-2-methyl-7-(1H-pyrrol-3-yl)benzimidazol-5-yl]morpholine], which IC50 is on record?
Answer: 13 nM

Question: For Cc1nc2c(-c3ccn(S(C)(=O)=O)c3)cc(N3CCOCC3)cc2n1-c1ccnc2c(Cl)cccc12 [Example 264, 4-[3-(8-chloroquinolin-4-yl)-2-methyl-7-(1-methylsulfonylpyrrol-3-yl)benzimidazol-5-yl]morpholine], which IC50 is on record?
Answer: 770 nM

Question: With Cc1nc2c(-c3cscn3)cc(N3CCOCC3)cc2n1-c1ccnc2ccccc12 [Example 265, 4-[2-methyl-3-quinolin-4-yl-7-(1,3-thiazol-4-yl)benzimidazol-5-yl]morpholine] as the compound, how does the IC50 read?
Answer: 460 nM

Question: Which IC50 does the source give for Cc1nc2c(-c3cnc[nH]3)cc(N3CCOCC3)cc2n1-c1ccnc2c(Cl)cccc12 [Example 266, 4-[3-(8-chloroquinolin-4-yl)-7-(1H-imidazol-5-yl)-2-methylbenzimidazol-5-yl]morpholine] here?
Answer: 11 nM

Question: With Cc1nc2c(-c3ccc(Cl)s3)cc(N3CCOCC3)cc2n1-c1ccnc2c(Cl)cccc12 [Example 267, 4-[3-(8-chloroquinolin-4-yl)-7-(5-chlorothiophen-2-yl)-2-methylbenzimidazol-5-yl]morpholine] as the compound, how does the IC50 read?
Answer: 2100 nM

Question: Cc1cc(-c2cc(N3CCOCC3)cc3c2nc(C)n3-c2ccnc3c(Cl)cccc23)n[nH]1 [Example 268, 4-[3-(8-chloroquinolin-4-yl)-2-methyl-7-(5-methyl-1H-pyrazol-3-yl)benzimidazol-5-yl]morpholine] was tested. Which IC50 did it give?
Answer: 317 nM

Question: How did the IC50 turn out when Cc1nc2c(-c3ccnn3C)cc(N3CCOCC3)cc2n1-c1ccnc2c(Cl)cccc12 [Example 269, 4-[3-(8-chloroquinolin-4-yl)-2-methyl-7-(2-methylpyrazol-3-yl)benzimidazol-5-yl]morpholine] was run?
Answer: 7000 nM

Question: For Cc1nc2c(-c3cscn3)cc(N3CCOCC3)cc2n1-c1ccnc2c(Cl)cccc12 [Example 270, 4-[3-(8-chloroquinolin-4-yl)-2-methyl-7-(1,3-thiazol-4-yl)benzimidazol-5-yl]morpholine], which IC50 is on record?
Answer: 36 nM

Question: For Cc1nc2c(-c3cccs3)cc(N3CCOCC3)cc2n1-c1ccnc2c(Cl)cccc12 [Example 271, 4-[3-(8-chloroquinolin-4-yl)-2-methyl-7-thiophen-2-ylbenzimidazol-5-yl]morpholine], which IC50 is on record?
Answer: 46 nM

Question: Cc1nc2c(-c3ccsc3)cc(N3CCOCC3)cc2n1-c1ccnc2c(Cl)cccc12 [Example 272, 4-[3-(8-chloroquinolin-4-yl)-2-methyl-7-thiophen-3-ylbenzimidazol-5-yl]morpholine] was tested. Which IC50 did it give?
Answer: 65 nM

Question: Cc1nc2c(-c3ccc(C#N)s3)cc(N3CCOCC3)cc2n1-c1ccnc2c(Cl)cccc12 [Example 273, 5-[1-(8-chloroquinolin-4-yl)-2-methyl-6-morpholin-4-ylbenzimidazol-4-yl]thiophene-2-carbonitrile] was tested. Which IC50 did it give?
Answer: 2600 nM

Question: How did the IC50 turn out when Cc1nc2c(-c3ccco3)cc(N3CCOCC3)cc2n1-c1ccnc2c(Cl)cccc12 [Example 274, 4-[3-(8-chloroquinolin-4-yl)-7-(furan-2-yl)-2-methylbenzimidazol-5-yl]morpholine] was run?
Answer: 27 nM

Question: Which IC50 does the source give for Cc1nc2c(-c3ccoc3)cc(N3CCOCC3)cc2n1-c1ccnc2c(Cl)cccc12 [Example 275, 4-[3-(8-chloroquinolin-4-yl)-7-(furan-3-yl)-2-methylbenzimidazol-5-yl]morpholine] here?
Answer: 88 nM

Question: Which IC50 does the source give for Cc1nc2c(-c3cncs3)cc(N3CCOCC3)cc2n1-c1ccnc2c(Cl)cccc12 [Example 276, 4-[3-(8-chloroquinolin-4-yl)-2-methyl-7-(1,3-thiazol-5-yl)benzimidazol-5-yl]morpholine] here?
Answer: 420 nM

Question: How did the IC50 turn out when Cc1nc2c(-c3cnco3)cc(N3CCOCC3)cc2n1-c1ccnc2c(Cl)cccc12 [Example 277, 4-[3-(8-chloroquinolin-4-yl)-2-methyl-7-(1,3-oxazol-5-yl)benzimidazol-5-yl]morpholine] was run?
Answer: 620 nM

Question: How did the IC50 turn out when Cc1nc2c(-c3cnc(Cl)[nH]3)cc(N3CCOCC3)cc2n1-c1ccnc2c(Cl)cccc12 [Example 278, 4-[7-(2-chloro-1H-imidazol-5-yl)-3-(8-chloroquinolin-4-yl)-2-methylbenzimidazol-5-yl]morpholine] was run?
Answer: 4 nM

Question: For CCc1nc2c(-c3cnc(Cl)[nH]3)cc(N3CCOCC3)cc2n1-c1ccnc2c(Cl)cccc12 [Example 279, 4-[7-(2-chloro-1H-imidazol-5-yl)-3-(8-chloroquinolin-4-yl)-2-ethylbenzimidazol-5-yl]morpholine], which IC50 is on record?
Answer: 10 nM

Question: For CCc1nc2c(-c3cnc(Cl)[nH]3)cc(N3CCOCC3)cc2n1-c1ccnc2c(F)ccc(F)c12 [Example 280, 4-[7-(2-chloro-1H-imidazol-5-yl)-3-(5,8-difluoroquinolin-4-yl)-2-ethylbenzimidazol-5-yl]morpholine], which IC50 is on record?
Answer: 13 nM

Question: Which IC50 does the source give for CCCc1nc2c(-c3cnc(Cl)[nH]3)cc(N3CCOCC3)cc2n1-c1ccnc2c(Cl)cccc12 [Example 281, 4-[7-(2-chloro-1H-imidazol-5-yl)-3-(8-chloroquinolin-4-yl)-2-propylbenzimidazol-5-yl]morpholine] here?
Answer: 15 nM

Question: Cc1cc(-n2c(C)nc3c(-c4cnc(Cl)[nH]4)cc(N4CCOCC4)cc32)c2cccc(F)c2n1 [Example 282, 4-[7-(2-chloro-1H-imidazol-5-yl)-3-(8-fluoro-2-methylquinolin-4-yl)-2-methylbenzimidazol-5-yl]morpholine] was tested. Which IC50 did it give?
Answer: 25 nM

Question: Which IC50 does the source give for CCc1nc2c(-c3cnc(Cl)[nH]3)cc(N3CCOCC3)cc2n1-c1cc(C)nc2c(F)cccc12 [Example 283, 4-[7-(2-chloro-1H-imidazol-5-yl)-2-ethyl-3-(8-fluoro-2-methylquinolin-4-yl)benzimidazol-5-yl]morpholine] here?
Answer: 71 nM

Question: CCc1nc2c(-c3cnc(Cl)[nH]3)cc(N3CCOCC3)cc2n1-c1ccnc2c(F)cccc12 [Example 284, 4-[7-(2-chloro-1H-imidazol-5-yl)-2-ethyl-3-(8-fluoroquinolin-4-yl)benzimidazol-5-yl]morpholine] was tested. Which IC50 did it give?
Answer: 13 nM

Question: For Clc1ncc(-c2cc(N3CCOCC3)cc3c2ncn3-c2ccnc3c(Cl)cccc23)[nH]1 [Example 285, 4-[7-(2-chloro-1H-imidazol-5-yl)-3-(8-chloroquinolin-4-yl)benzimidazol-5-yl]morpholine], which IC50 is on record?
Answer: 4 nM

Question: Which IC50 does the source give for Fc1ccc(F)c2c(-n3c(C4CC4)nc4c(-c5cnc(Cl)[nH]5)cc(N5CCOCC5)cc43)ccnc12 [Example 286, 4-[7-(2-chloro-1H-imidazol-5-yl)-2-cyclopropyl-3-(5,8-difluoroquinolin-4-yl)benzimidazol-5-yl]morpholine] here?
Answer: 14 nM

Question: With Fc1cccc2c(-n3c(C4CC4)nc4c(-c5cnc(Cl)[nH]5)cc(N5CCOCC5)cc43)ccnc12 [Example 287, 4-[7-(2-chloro-1H-imidazol-5-yl)-2-cyclopropyl-3-(8-fluoroquinolin-4-yl)benzimidazol-5-yl]morpholine] as the compound, how does the IC50 read?
Answer: 56 nM

Question: Cc1nc2c(-c3cnc(Cl)[nH]3)cc(N3CCOCC3)cc2n1-c1ccnc2c(Cl)ccc(F)c12 [Example 288, 4-[3-(8-chloro-5-fluoroquinolin-4-yl)-7-(2-chloro-1H-imidazol-5-yl)-2-methylbenzimidazol-5-yl]morpholine] was tested. Which IC50 did it give?
Answer: 5 nM

Question: Cc1nc2c(-c3cnc(Cl)[nH]3)cc(N3CCOCC3)cc2n1-c1ccnc2c(Cl)cc(F)cc12 [Example 289, 4-[3-(8-chloro-6-fluoroquinolin-4-yl)-7-(2-chloro-1H-imidazol-5-yl)-2-methylbenzimidazol-5-yl]morpholine] was tested. Which IC50 did it give?
Answer: 24 nM

Question: Which IC50 does the source give for Clc1ncc(-c2cc(N3CCOCC3)cc3c2nc(C2CC2)n3-c2ccnc3c(Cl)cccc23)[nH]1 [Example 290, 4-[7-(2-chloro-1H-imidazol-5-yl)-3-(8-chloroquinolin-4-yl)-2-cyclopropylbenzimidazol-5-yl]morpholine] here?
Answer: 68 nM

Question: How did the IC50 turn out when Clc1ncc(-c2cc(N3CCOCC3)cc3c2nc(C2COC2)n3-c2ccnc3c(Cl)cccc23)[nH]1 [Example 291, 4-[7-(2-chloro-1H-imidazol-5-yl)-3-(8-chloroquinolin-4-yl)-2-(oxetan-3-yl)benzimidazol-5-yl]morpholine] was run?
Answer: 27 nM

Question: Fc1cccc2c(-n3cnc4c(-c5cnc(Cl)[nH]5)cc(N5CCOCC5)cc43)ccnc12 [Example 292, 4-[7-(2-chloro-1H-imidazol-5-yl)-3-(8-fluoroquinolin-4-yl)benzimidazol-5-yl]morpholine] was tested. Which IC50 did it give?
Answer: 42 nM

Question: How did the IC50 turn out when Cc1nc2c(-c3cnc(Cl)[nH]3)cc(N3CCOCC3)cc2n1-c1ccnc2cc(F)ccc12 [Example 293, 4-[7-(2-chloro-1H-imidazol-5-yl)-3-(7-fluoroquinolin-4-yl)-2-methylbenzimidazol-5-yl]morpholine] was run?
Answer: 38 nM
